Assay results as given in patent publication US20130323721A1, “HEPATOCYTES FOR IN VITRO GENOTOXICITY TESTS” (MEDICYTE GMBH, priority 2010, published 2013).
Like-named read-outs stand apart in the source and are kept apart here.

Key:
[1] = test system: bacteria (auxotrophic mutants); conditions: with S9 fraction of hamster liver; cited from earlier work
[2] = test system: proliferating hepatocytes; test: Micronucleus formation in proliferating hepatocytes, FACS assay
Description: So as to check the suitability of the proliferatable hepatocytes described in the patent with respect to genotoxicity tests, the cells were treated with substances that are considered positive and negative substances for genotoxicity. Genotoxicity was quantified by way of the share of induced micronuclei as compared to the control group using an FACS assay.
The proliferating hepatocytes described in the invention were plated out in a density of 3000 cells/cm^2 on collagen-coated cell culture vessels and treated with the aforementioned substances in various concentrations. Within the scope of regulatory testing according to OECD, testing took place up to 50% cytotoxicity, which was determined for each substance beforehand by way of a MTT viability assay.

V79 cells = conditions: with or without S9 mix; cited from earlier work

## CCOc1ccc(NC(C)=O)cc1 [phenacetin]
[1]
  Ames test result (mutagenicity): only tested positively in the Ames test if an incubation of phenacetin is carried out with the S9 fraction of hamster liver

## COc1cc(/C=C/C(=O)CC(=O)/C=C/c2ccc(O)c(OC)c2)ccc1O [curcumin]
[2]
  Genotoxicity: induced micronuclei compared to the control group: did not induce increased micronuclei formation

## O=P1(N(CCCl)CCCl)NCCCO1 (stereo not shown) [CPA, cyclophosphamide]
[2]; various concentrations up to 50% cytotoxicity, no external S9, FIGS. 2-4
  Genotoxicity: induced micronuclei compared to the control group: clearly recognized as being positive
V79 cells
  Detection of genotoxicity in micronucleus test: only detected in the currently used micronucleus test with V79 cells if the substance was previously converted with a CYP enzyme extract (S9 mix)
